Laboratory results as given in publication PMC10408569, “Recruitment of hexahydroquinoline as anticancer scaffold targeting inhibition of wild and mutants EGFR (EGFR^WT, EGFR^T790M, and EGFR^L858R)” (Journal of Enzyme Inhibition and Medicinal Chemistry, 2023).

How the values were obtained:
HL-60(TB) = assay: NCI-60 anticancer screening (SRB); assay type: cell-based; conditions: Homo sapiens, leukemia, one dose 10 μM, read-out: Growth Inhibition Percentage (GI %)
RPMI-8226 = assay: NCI-60 anticancer screening (SRB); assay type: cell-based; conditions: Homo sapiens; RPMI-8226, leukemia; one dose 10 μM; read-out: Growth Inhibition Percentage (GI %)
A549/ATCC = assay: NCI-60 anticancer screening (SRB); assay type: cell-based; conditions: Homo sapiens; A549/ATCC, NSC lung cancer; one dose 10 μM; read-out: Growth Inhibition Percentage (GI %)
EKVX = assay: NCI-60 anticancer screening (SRB); assay type: cell-based; conditions: Homo sapiens, NSC lung cancer, one dose 10 μM, read-out: Growth Inhibition Percentage (GI %)
HOP-62 = assay: NCI-60 anticancer screening (SRB); assay type: cell-based; conditions: Homo sapiens; HOP-62, NSC lung cancer; one dose 10 μM; read-out: Growth Inhibition Percentage (GI %)
NCI-H322M = assay: NCI-60 anticancer screening (SRB); assay type: cell-based; conditions: Homo sapiens, NSC lung cancer, one dose 10 μM, read-out: Growth Inhibition Percentage (GI %)
NCI-H460 = assay: NCI-60 anticancer screening (SRB); assay type: cell-based; conditions: Homo sapiens; NCI-H460, NSC lung cancer; one dose 10 μM; read-out: Growth Inhibition Percentage (GI %)
NCI-H522 = assay: NCI-60 anticancer screening (SRB); assay type: cell-based; conditions: Homo sapiens; NCI-H522, NSC lung cancer; one dose 10 μM; read-out: Growth Inhibition Percentage (GI %)
HCC-2998 = assay: NCI-60 anticancer screening (SRB); assay type: cell-based; conditions: Homo sapiens; HCC-2998, colon cancer; one dose 10 μM; read-out: Growth Inhibition Percentage (GI %)
HCT-15 = assay: NCI-60 anticancer screening (SRB); assay type: cell-based; conditions: Homo sapiens; HCT-15, colon cancer; one dose 10 μM; read-out: Growth Inhibition Percentage (GI %)
HT29 = assay: NCI-60 anticancer screening (SRB); assay type: cell-based; conditions: Homo sapiens, HT-29; HT29, colon cancer; one dose 10 μM; read-out: Growth Inhibition Percentage (GI %)
KM 12 = assay: NCI-60 anticancer screening (SRB); assay type: cell-based; conditions: Homo sapiens, KM12; KM 12, colon cancer; one dose 10 μM; read-out: Growth Inhibition Percentage (GI %)
SF-268 = assay: NCI-60 anticancer screening (SRB); assay type: cell-based; conditions: Homo sapiens; SF-268, CNS cancer; one dose 10 μM; read-out: Growth Inhibition Percentage (GI %)
SF-295 = assay: NCI-60 anticancer screening (SRB); assay type: cell-based; conditions: Homo sapiens; SF-295, CNS cancer; one dose 10 μM; read-out: Growth Inhibition Percentage (GI %)
SF-539 = assay: NCI-60 anticancer screening (SRB); assay type: cell-based; conditions: Homo sapiens; SF-539, CNS cancer; one dose 10 μM; read-out: Growth Inhibition Percentage (GI %)
SNB-19 = assay: NCI-60 anticancer screening (SRB); assay type: cell-based; conditions: Homo sapiens; SNB-19, CNS cancer; one dose 10 μM; read-out: Growth Inhibition Percentage (GI %)
SNB-75 = assay: NCI-60 anticancer screening (SRB); assay type: cell-based; conditions: Homo sapiens; SNB-75, CNS cancer; one dose 10 μM; read-out: Growth Inhibition Percentage (GI %)
M14 = assay: NCI-60 anticancer screening (SRB); assay type: cell-based; conditions: Homo sapiens; M14, melanoma; one dose 10 μM; read-out: Growth Inhibition Percentage (GI %)
MDA-MB-435 = assay: NCI-60 anticancer screening (SRB); assay type: cell-based; conditions: Homo sapiens; MDA-MB-435, melanoma; one dose 10 μM; read-out: Growth Inhibition Percentage (GI %)
SK-MEL-28 = assay: NCI-60 anticancer screening (SRB); assay type: cell-based; conditions: Homo sapiens; SK-MEL-28, melanoma; one dose 10 μM; read-out: Growth Inhibition Percentage (GI %)
SK-MEL-5 = assay: NCI-60 anticancer screening (SRB); assay type: cell-based; conditions: Homo sapiens; SK-MEL-5, melanoma; one dose 10 μM; read-out: Growth Inhibition Percentage (GI %)
UACC-62 = assay: NCI-60 anticancer screening (SRB); assay type: cell-based; conditions: Homo sapiens; UACC-62, melanoma; one dose 10 μM; read-out: Growth Inhibition Percentage (GI %)
NCI/ADR-RES = assay: NCI-60 anticancer screening (SRB); assay type: cell-based; conditions: Homo sapiens, ovarian cancer, one dose 10 μM, read-out: Growth Inhibition Percentage (GI %)
786-0 = assay: NCI-60 anticancer screening (SRB); assay type: cell-based; conditions: Homo sapiens; 786-0, renal cancer; one dose 10 μM; read-out: Growth Inhibition Percentage (GI %)
CAKI-1 = assay: NCI-60 anticancer screening (SRB); assay type: cell-based; conditions: Homo sapiens; CAKI-1, renal cancer; one dose 10 μM; read-out: Growth Inhibition Percentage (GI %)
RXF 393 = assay: NCI-60 anticancer screening (SRB); assay type: cell-based; conditions: Homo sapiens; RXF 393, renal cancer; one dose 10 μM; read-out: Growth Inhibition Percentage (GI %)
SN 12C = assay: NCI-60 anticancer screening (SRB); assay type: cell-based; conditions: Homo sapiens, SN12C; SN 12C, renal cancer; one dose 10 μM; read-out: Growth Inhibition Percentage (GI %)
TK-10 = assay: NCI-60 anticancer screening (SRB); assay type: cell-based; conditions: Homo sapiens; TK-10, renal cancer; one dose 10 μM; read-out: Growth Inhibition Percentage (GI %)
DU-145 = assay: NCI-60 anticancer screening (SRB); assay type: cell-based; conditions: Homo sapiens; DU-145, prostate cancer; one dose 10 μM; read-out: Growth Inhibition Percentage (GI %)
MDA-MB-231 = assay: NCI-60 anticancer screening (SRB); assay type: cell-based; conditions: Homo sapiens; MDA-MB-231, breast cancer; one dose 10 μM; read-out: Growth Inhibition Percentage (GI %)
T-47D = assay: NCI-60 anticancer screening (SRB); assay type: cell-based; conditions: Homo sapiens, T47D, breast cancer, one dose 10 μM, read-out: Growth Inhibition Percentage (GI %)
NCI 60 cancer cell lines = assay: NCI-60 anticancer screening (SRB), whole panel; assay type: cell-based, human; conditions: mean across the NCI-60 panel; one dose 10 μM

Structure (SMILES) | inhibition at 10 µM (HL-60(TB)) [%] | inhibition at 10 µM (RPMI-8226) [%] | inhibition at 10 µM (A549/ATCC) [%] | inhibition at 10 µM (EKVX) [%] | inhibition at 10 µM (HOP-62) [%] | inhibition at 10 µM (NCI-H322M) [%] | inhibition at 10 µM (NCI-H460) [%] | inhibition at 10 µM (NCI-H522) [%] | inhibition at 10 µM (HCC-2998) [%] | inhibition at 10 µM (HCT-15) [%] | inhibition at 10 µM (HT29) [%] | inhibition at 10 µM (KM 12) [%] | inhibition at 10 µM (SF-268) [%] | inhibition at 10 µM (SF-295) [%] | inhibition at 10 µM (SF-539) [%] | inhibition at 10 µM (SNB-19) [%] | inhibition at 10 µM (SNB-75) [%] | inhibition at 10 µM (M14) [%] | inhibition at 10 µM (MDA-MB-435) [%] | inhibition at 10 µM (SK-MEL-28) [%] | further results
CCOC(=O)C1=C(N)N(c2ccc(Cl)cc2)C2=C(C(=O)CC(C)(C)C2)C1c1cccc(Cl)c1Cl (racemic) [10b, (±)-Ethyl 2-amino-1–(4-chorophenyl)-4–(2,3-dichlorophenyl)-7,7-dimethyl-5-oxo-1-phenyl-1,4,5,6,7,8-hexahydroquinoline-3-carboxylate] | 77 | 73 | 34 | 58 | 16 | < 10 | 53 | 30 | 18 | 62 | 32 | 49 | 22 | 26 | 22 | 22 | 22 | 16 | 25 | 16 | inhibition at 10 µM (SK-MEL-5): 40%; inhibition at 10 µM (UACC-62): 34%; inhibition at 10 µM (NCI/ADR-RES): 32%; inhibition at 10 µM (786-0): 22%; inhibition at 10 µM (CAKI-1): 53%; inhibition at 10 µM (RXF 393): 27%; inhibition at 10 µM (SN 12C): 35%; inhibition at 10 µM (TK-10): < 10%; inhibition at 10 µM (DU-145): 18%; inhibition at 10 µM (MDA-MB-231): 33%; inhibition at 10 µM (T-47D): 41%; GI % mean (NCI 60 cancer cell lines): 36%
CCOC(=O)C1=C(N)N(c2ccc(C)cc2)C2=C(C(=O)CC(C)(C)C2)C1c1ccccn1 (racemic) [12b, (±)-Ethyl 2-amino-7,7-dimethyl-1–(4-methylphenyl)-5-oxo-1-phenyl-4-(pyrdin-2-yl)-1,4,5,6,7,8-hexahydroquinoline-3-carboxylate] | < 10 | < 10 | < 10 | 19 | < 10 | < 10 | < 10 | < 10 | < 10 | < 10 | < 10 | < 10 | 14 | < 10 | < 10 | < 10 | 19 | < 10 | < 10 | < 10 | inhibition at 10 µM (SK-MEL-5): 13%; inhibition at 10 µM (UACC-62): 26%; inhibition at 10 µM (NCI/ADR-RES): < 10%; inhibition at 10 µM (786-0): < 10%; inhibition at 10 µM (CAKI-1): 16%; inhibition at 10 µM (RXF 393): < 10%; inhibition at 10 µM (SN 12C): < 10%; inhibition at 10 µM (TK-10): < 10%; inhibition at 10 µM (DU-145): < 10%; inhibition at 10 µM (MDA-MB-231): 13%; inhibition at 10 µM (T-47D): < 10%; GI % mean (NCI 60 cancer cell lines): - ((-) = GI % mean less than 10)
